The test system of this assay is Staphylococcus (Staphylococcus aureus, Staphylococcus epidermidis, Staphylococcus saprophyticus, and Staphylococcus sciuri). Put plainly: in vitro inhibition and bactericidal effect on bovine mastitis isolated pathogenic bacteria: Staphylococcus. It is filed as cell-based. As to conditions: control antibiotics. The method, then: (5) the recombinant antibacterial polypeptide medicine was tested for the in vitro inhibition and bactericidal effect on bovine mastitis isolated pathogenic bacteria.

Structures are written as SMILES.

Regarding `Cc1onc(-c2ccccc2)c1C(=O)N[C@@H]1C(=O)N2[C@@H]1SC(C)(C)[C@@H]2C(=O)O` [oxacillin], the “inhibition and bactericidal effect of controls (MIC50/MBC50 not specified)” value was 4 µg/mL.

For `CC(=O)OCC1=C(C(=O)O)N2C(=O)[C@@H](NC(=O)Cc3cccs3)[C@H]2SC1` [cephalothin], the “inhibition and bactericidal effect of controls (MIC50/MBC50 not specified)” value came to 2 µg/mL.

The record behind these values is US9765378B2, “Preparation method of new recombinant antibacterial polypeptide medicine” (priority 2011, dated 2017).
